The NIST ThermoML archive (doi:10.1016/j.fluid.2013.06.021)

Assay: xn = mol fraction of the nth substance listed
Details: 101 kPa, Liquid; for speed of sound: Sing-around technique in a fixed-path interferometer; for mass density: Vibrating tube method; for viscosity: Capillary tube (Ostwald / Ubbelohde) method

CCCCOCCO [2-butoxyethan-1-ol] + CCCO
Details | mass density [kg/m3] | speed of sound [m/s] | viscosity [mPa·s]
293.15 K, x1 = 0.052 | 812.72 | 1233.5 | –
293.15 K, x1 = 0.1024 | 820.5 | 1241.8 | –
293.15 K, x1 = 0.1524 | 827.69 | 1249.4 | –
293.15 K, x1 = 0.1986 | 833.97 | 1255.9 | –
293.15 K, x1 = 0.2528 | 840.79 | 1263 | –
293.15 K, x1 = 0.3032 | 846.73 | 1269.1 | –
293.15 K, x1 = 0.4064 | 857.67 | 1280.4 | –
293.15 K, x1 = 0.5015 | 866.6 | 1289.5 | –
293.15 K, x1 = 0.6031 | 875.08 | 1298.1 | –
293.15 K, x1 = 0.7006 | 882.33 | 1305.4 | –
293.15 K, x1 = 0.8022 | 889.07 | 1312.2 | –
293.15 K, x1 = 0.8553 | 892.31 | 1315.4 | –
293.15 K, x1 = 0.9066 | 895.25 | 1318.3 | –
293.15 K, x1 = 0.9516 | 897.7 | 1320.8 | –
298.15 K, x1 = 0.052 | 808.78 | 1216.5 | 1.991
298.15 K, x1 = 0.1024 | 816.6 | 1224.8 | 2.014
298.15 K, x1 = 0.1524 | 823.84 | 1232.3 | 2.048
298.15 K, x1 = 0.1986 | 830.06 | 1238.9 | 2.079
298.15 K, x1 = 0.2528 | 836.87 | 1245.9 | 2.122
298.15 K, x1 = 0.3032 | 842.76 | 1252 | 2.163
298.15 K, x1 = 0.4064 | 853.64 | 1263.3 | 2.256
298.15 K, x1 = 0.5015 | 862.56 | 1272.3 | 2.351
298.15 K, x1 = 0.6031 | 871.01 | 1280.9 | 2.457
298.15 K, x1 = 0.7006 | 878.24 | 1288.3 | 2.558
298.15 K, x1 = 0.8022 | 884.94 | 1295.1 | 2.666
298.15 K, x1 = 0.8553 | 888.19 | 1298.3 | 2.725
298.15 K, x1 = 0.9066 | 891.15 | 1301.3 | 2.779
298.15 K, x1 = 0.9516 | 893.62 | 1303.7 | 2.83
303.15 K, x1 = 0.052 | 804.75 | 1199.4 | 1.751
303.15 K, x1 = 0.1024 | 812.56 | 1207.8 | 1.776
303.15 K, x1 = 0.1524 | 819.76 | 1215.4 | 1.811
303.15 K, x1 = 0.1986 | 825.96 | 1221.9 | 1.844
303.15 K, x1 = 0.2528 | 832.81 | 1229 | 1.883
303.15 K, x1 = 0.3032 | 838.66 | 1235.1 | 1.925
303.15 K, x1 = 0.4064 | 849.51 | 1246.3 | 2.027
303.15 K, x1 = 0.5015 | 858.44 | 1255.4 | 2.129
303.15 K, x1 = 0.6031 | 866.86 | 1264 | 2.233
303.15 K, x1 = 0.7006 | 874.08 | 1271.3 | 2.338
303.15 K, x1 = 0.8022 | 880.81 | 1278 | 2.443
303.15 K, x1 = 0.8553 | 884.07 | 1281.3 | 2.505
303.15 K, x1 = 0.9066 | 887.02 | 1284.2 | 2.559
303.15 K, x1 = 0.9516 | 889.53 | 1286.6 | 2.615
308.15 K, x1 = 0.052 | 800.67 | 1182.4 | 1.578
308.15 K, x1 = 0.1024 | 808.47 | 1190.8 | 1.597
308.15 K, x1 = 0.1524 | 815.69 | 1198.4 | 1.627
308.15 K, x1 = 0.1986 | 821.89 | 1205 | 1.657
308.15 K, x1 = 0.2528 | 828.69 | 1212.1 | 1.69
308.15 K, x1 = 0.3032 | 834.55 | 1218.3 | 1.726
308.15 K, x1 = 0.4064 | 845.38 | 1229.5 | 1.804
308.15 K, x1 = 0.5015 | 854.29 | 1238.6 | 1.874
308.15 K, x1 = 0.6031 | 862.71 | 1247.2 | 1.953
308.15 K, x1 = 0.7006 | 869.93 | 1254.4 | 2.026
308.15 K, x1 = 0.8022 | 876.64 | 1261.1 | 2.11
308.15 K, x1 = 0.8553 | 879.9 | 1264.3 | 2.156
308.15 K, x1 = 0.9066 | 882.86 | 1267.2 | 2.188
308.15 K, x1 = 0.9516 | 885.32 | 1269.7 | 2.218
313.15 K, x1 = 0.052 | 796.66 | 1165.4 | –
313.15 K, x1 = 0.1024 | 804.45 | 1173.7 | –
313.15 K, x1 = 0.1524 | 811.62 | 1181.4 | –
313.15 K, x1 = 0.1986 | 817.8 | 1188 | –
313.15 K, x1 = 0.2528 | 824.54 | 1195.2 | –
313.15 K, x1 = 0.3032 | 830.4 | 1201.5 | –
313.15 K, x1 = 0.4064 | 841.23 | 1212.9 | –
313.15 K, x1 = 0.5015 | 850.1 | 1222 | –
313.15 K, x1 = 0.6031 | 858.52 | 1230.6 | –
313.15 K, x1 = 0.7006 | 865.71 | 1237.8 | –
313.15 K, x1 = 0.8022 | 872.48 | 1244.4 | –
313.15 K, x1 = 0.8553 | 875.69 | 1247.6 | –
313.15 K, x1 = 0.9066 | 878.69 | 1250.5 | –
313.15 K, x1 = 0.9516 | 881.14 | 1252.9 | –
